Assay [1] addresses PIK3CD (Human) (UniProt O00329). The assay can be described thus: Assessment of PIK3CD Kinase Activity.
The target in assay [2] is PIK3CG (human) (UniProt P48736). The assay can be described thus: Assessment of PIK3CG Kinase Activity.
In assay [3] the target is PIK3CA (human) (UniProt P42336). Description: Assessment of PIK3CA Kinase Activity.
The target in assay [4] is PIK3CB (Human) (UniProt P42338). Description: Assessment of PIK3CB Kinase Activity.

Each structure is given as a SMILES string.

Sequence of PIK3CB (Human) (P42338 whole entry, looked up): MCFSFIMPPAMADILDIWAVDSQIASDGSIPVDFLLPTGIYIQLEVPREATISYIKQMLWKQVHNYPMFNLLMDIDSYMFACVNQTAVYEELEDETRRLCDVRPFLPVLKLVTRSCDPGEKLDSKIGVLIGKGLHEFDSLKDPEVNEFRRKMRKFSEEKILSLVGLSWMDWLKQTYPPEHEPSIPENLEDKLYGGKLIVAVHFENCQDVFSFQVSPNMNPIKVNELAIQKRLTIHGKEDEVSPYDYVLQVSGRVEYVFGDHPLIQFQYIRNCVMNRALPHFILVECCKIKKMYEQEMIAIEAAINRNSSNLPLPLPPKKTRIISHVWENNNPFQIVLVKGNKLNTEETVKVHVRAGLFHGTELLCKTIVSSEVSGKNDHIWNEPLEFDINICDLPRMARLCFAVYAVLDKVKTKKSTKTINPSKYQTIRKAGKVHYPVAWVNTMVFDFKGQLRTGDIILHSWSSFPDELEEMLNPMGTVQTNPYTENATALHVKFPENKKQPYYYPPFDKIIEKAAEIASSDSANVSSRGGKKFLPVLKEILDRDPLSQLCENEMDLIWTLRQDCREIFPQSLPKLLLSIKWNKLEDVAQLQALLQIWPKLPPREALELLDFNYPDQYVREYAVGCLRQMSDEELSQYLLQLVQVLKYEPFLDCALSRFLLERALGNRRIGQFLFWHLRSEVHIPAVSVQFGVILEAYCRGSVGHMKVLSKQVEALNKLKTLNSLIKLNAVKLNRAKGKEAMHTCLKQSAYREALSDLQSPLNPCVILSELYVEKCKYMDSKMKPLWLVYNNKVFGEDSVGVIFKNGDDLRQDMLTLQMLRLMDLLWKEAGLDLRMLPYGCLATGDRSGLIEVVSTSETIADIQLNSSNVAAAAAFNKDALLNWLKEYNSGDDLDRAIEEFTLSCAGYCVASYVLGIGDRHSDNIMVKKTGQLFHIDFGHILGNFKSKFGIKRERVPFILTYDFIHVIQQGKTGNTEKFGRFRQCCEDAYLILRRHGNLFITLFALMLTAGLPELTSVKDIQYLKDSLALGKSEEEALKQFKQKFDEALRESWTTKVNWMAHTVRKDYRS
Sequence of PIK3CD (Human) (O00329 whole entry, looked up): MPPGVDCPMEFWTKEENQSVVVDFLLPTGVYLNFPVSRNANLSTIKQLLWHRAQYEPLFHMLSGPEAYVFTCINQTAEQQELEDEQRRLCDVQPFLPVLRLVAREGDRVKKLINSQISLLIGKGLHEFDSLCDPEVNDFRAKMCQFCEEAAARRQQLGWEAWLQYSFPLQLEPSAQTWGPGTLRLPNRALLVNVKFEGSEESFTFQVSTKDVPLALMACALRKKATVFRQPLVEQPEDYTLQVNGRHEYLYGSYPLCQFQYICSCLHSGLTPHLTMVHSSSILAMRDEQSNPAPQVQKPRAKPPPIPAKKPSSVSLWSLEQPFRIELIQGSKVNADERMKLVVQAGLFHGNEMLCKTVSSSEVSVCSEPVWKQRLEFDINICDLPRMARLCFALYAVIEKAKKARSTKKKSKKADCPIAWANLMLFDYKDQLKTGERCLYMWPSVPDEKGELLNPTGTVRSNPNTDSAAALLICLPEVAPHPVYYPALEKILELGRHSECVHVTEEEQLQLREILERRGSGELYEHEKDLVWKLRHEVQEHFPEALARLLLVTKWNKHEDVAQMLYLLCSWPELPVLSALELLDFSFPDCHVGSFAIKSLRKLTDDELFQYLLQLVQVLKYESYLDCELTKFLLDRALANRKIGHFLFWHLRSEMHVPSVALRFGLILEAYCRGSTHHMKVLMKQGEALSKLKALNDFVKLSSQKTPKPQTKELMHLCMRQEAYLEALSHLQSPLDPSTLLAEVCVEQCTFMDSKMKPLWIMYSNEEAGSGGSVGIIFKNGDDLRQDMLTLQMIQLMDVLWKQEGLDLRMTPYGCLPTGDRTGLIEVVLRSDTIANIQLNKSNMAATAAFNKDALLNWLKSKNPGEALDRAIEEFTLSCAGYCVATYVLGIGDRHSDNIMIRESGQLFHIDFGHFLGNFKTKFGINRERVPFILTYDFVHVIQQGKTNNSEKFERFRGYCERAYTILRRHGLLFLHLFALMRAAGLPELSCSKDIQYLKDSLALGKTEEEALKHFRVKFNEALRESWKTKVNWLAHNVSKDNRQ
Sequence of PIK3CA (human) (P42336 whole entry, looked up): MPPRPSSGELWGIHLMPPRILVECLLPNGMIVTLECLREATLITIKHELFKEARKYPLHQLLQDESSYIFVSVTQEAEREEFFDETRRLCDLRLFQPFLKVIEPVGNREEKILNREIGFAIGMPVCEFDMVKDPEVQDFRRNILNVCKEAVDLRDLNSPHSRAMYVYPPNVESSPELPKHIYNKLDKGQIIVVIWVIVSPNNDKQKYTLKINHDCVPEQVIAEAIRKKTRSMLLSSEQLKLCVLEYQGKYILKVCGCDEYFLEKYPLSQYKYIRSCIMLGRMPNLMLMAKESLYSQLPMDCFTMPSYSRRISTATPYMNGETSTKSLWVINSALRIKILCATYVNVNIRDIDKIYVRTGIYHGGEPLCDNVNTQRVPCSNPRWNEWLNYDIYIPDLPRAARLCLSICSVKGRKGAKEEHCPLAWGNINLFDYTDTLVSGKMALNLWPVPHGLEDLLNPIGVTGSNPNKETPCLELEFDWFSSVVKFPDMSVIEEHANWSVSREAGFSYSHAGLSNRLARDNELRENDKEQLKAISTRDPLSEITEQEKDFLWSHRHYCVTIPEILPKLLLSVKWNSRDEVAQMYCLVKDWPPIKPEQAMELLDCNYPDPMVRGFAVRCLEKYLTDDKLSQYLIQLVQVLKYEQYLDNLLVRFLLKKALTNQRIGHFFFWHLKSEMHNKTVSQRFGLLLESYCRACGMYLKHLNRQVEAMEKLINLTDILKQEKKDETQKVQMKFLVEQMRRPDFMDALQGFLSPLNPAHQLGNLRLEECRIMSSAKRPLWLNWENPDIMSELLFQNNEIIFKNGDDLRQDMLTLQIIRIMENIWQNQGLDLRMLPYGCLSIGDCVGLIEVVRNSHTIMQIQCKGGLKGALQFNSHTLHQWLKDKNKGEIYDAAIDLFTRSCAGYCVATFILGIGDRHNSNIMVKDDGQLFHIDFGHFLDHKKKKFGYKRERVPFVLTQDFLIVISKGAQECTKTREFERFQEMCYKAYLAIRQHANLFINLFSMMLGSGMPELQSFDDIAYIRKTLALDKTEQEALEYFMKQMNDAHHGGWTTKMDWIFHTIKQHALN
Sequence of PIK3CG (human) (P48736 whole entry, looked up): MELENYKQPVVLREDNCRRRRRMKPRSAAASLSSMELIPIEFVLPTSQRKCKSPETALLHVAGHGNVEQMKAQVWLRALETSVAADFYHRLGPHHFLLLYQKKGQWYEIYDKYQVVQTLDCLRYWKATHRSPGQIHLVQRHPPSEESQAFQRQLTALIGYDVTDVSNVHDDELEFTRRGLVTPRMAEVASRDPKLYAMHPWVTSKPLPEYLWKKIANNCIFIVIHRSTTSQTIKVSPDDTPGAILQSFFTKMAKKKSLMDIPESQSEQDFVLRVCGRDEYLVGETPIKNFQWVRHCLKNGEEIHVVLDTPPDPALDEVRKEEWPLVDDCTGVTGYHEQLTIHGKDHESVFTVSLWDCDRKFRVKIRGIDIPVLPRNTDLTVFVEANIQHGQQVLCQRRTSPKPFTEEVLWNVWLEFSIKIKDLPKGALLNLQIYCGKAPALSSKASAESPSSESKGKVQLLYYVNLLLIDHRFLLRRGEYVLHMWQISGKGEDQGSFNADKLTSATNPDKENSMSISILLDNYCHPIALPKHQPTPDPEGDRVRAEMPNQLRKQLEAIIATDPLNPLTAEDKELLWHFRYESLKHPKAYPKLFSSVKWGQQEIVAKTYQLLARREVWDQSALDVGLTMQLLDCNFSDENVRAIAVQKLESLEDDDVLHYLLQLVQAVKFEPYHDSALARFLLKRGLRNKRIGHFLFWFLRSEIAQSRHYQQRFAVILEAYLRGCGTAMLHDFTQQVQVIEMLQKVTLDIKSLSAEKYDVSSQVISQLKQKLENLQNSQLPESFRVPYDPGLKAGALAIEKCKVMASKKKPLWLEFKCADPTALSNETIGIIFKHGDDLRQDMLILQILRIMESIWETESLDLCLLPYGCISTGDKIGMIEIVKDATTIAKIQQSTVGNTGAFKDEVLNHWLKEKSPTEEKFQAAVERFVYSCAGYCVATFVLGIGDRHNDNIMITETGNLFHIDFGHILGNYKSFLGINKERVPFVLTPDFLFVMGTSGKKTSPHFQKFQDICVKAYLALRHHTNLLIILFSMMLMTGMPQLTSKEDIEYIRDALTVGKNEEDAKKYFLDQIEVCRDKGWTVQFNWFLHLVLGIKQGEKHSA

For `CCNC(=O)c1cc2nc(-c3cccc4[nH]ncc34)nc(N3CCOCC3)c2s1`, the IC50 in assay [1] is over 100 nM; in assay [2] it was over 100 nM; in assay [3], under 1000 nM; in assay [4], over 100 nM.
Consider `CS(=O)(=O)N1CCC(C(O)c2cc3nc(-c4cccc5[nH]ncc45)nc(N4CCOCC4)c3s2)CC1` (centres undefined), for which the IC50 in assay [1] was over 100 nM; in assay [2], under 100 nM; in assay [3], under 1000 nM; in assay [4] it was over 100 nM.
Turning to `Cc1c(-c2cccc(S(C)(=O)=O)c2)sc2c(N3CCOCC3)nc(-c3cccc4[nH]ncc34)nc12`, the IC50 in assay [1] was under 100 nM; in assay [2], under 100 nM; in assay [3], under 1000 nM; in assay [4], under 100 nM.
As for `CC(C)(NC(=O)c1ccccc1)c1cc2nc(-c3cccc4[nH]ncc34)nc(N3CCOCC3)c2s1`, the IC50 in assay [1] was over 100 nM; in assay [2] it was under 100 nM; in assay [3], under 1000 nM; in assay [4], under 100 nM.
As to `OCCNc1cc2nc(-c3cccc4[nH]ncc34)nc(N3CCOCC3)c2s1`, the IC50 is over 100 nM in assay [1], under 100 nM in assay [2], under 1000 nM in assay [3] and over 100 nM in assay [4].
For the molecule `CNC(=O)c1cccc(-c2cc3nc(-c4cccc5[nH]ncc45)nc(N4CCOCC4)c3s2)c1`, the IC50 in assay [1] was over 100 nM; in assay [2], under 100 nM; in assay [3], under 1000 nM; in assay [4], under 100 nM.
In the case of `CS(=O)(=O)c1cccc(C(=O)NCc2cc3nc(-c4cccc5[nH]ncc45)nc(N4CCOCC4)c3s2)c1`, the IC50 in assay [1] was over 100 nM; in assay [2], under 100 nM; in assay [3], under 1000 nM; in assay [4], under 100 nM.
Regarding `O=C(NOCC1CC1)c1cc2nc(-c3cccc4[nH]ncc34)nc(N3CCOCC3)c2s1`, the half-maximal inhibitory concentration (IC50) in assay [1] is over 100 nM; in assay [2], under 100 nM; in assay [3], under 1000 nM; in assay [4], over 100 nM.
As to `CC(=O)Nc1cccc(-c2cc3nc(-c4cccc5[nH]ncc45)nc(N4CCOCC4)c3s2)c1`, the IC50 in assay [1] was over 100 nM; in assay [2], under 100 nM; in assay [3], under 1000 nM; in assay [4], under 100 nM.
With `CC(C)(O)c1cc2nc(-c3cnc4[nH]ccc4c3)nc(N3CCOCC3)c2s1`, the IC50 in assay [1] was over 100 nM; in assay [2], under 100 nM; in assay [3] it was under 1000 nM; in assay [4] it was under 100 nM.
`CN(Cc1cc2c(N3CCOCC3)nc(-c3cnc4[nH]ccc4c3)nc2s1)S(C)(=O)=O`: the IC50 in assay [1] was under 100 nM; in assay [2], under 100 nM; in assay [3] it was under 1000 nM; in assay [4] it was under 100 nM.
As to `O=S(=O)(NCCN1CCCCC1)c1cc2nc(-c3cccc4[nH]ncc34)nc(N3CCOCC3)c2s1`, the IC50 in assay [1] was over 100 nM; in assay [2], under 100 nM; in assay [3], under 1000 nM; in assay [4], under 100 nM.
Take `O=C(O)c1cccc(-c2cc3nc(-c4cccc5[nH]ncc45)nc(N4CCOCC4)c3s2)c1`: the IC50 was over 100 nM in assay [1], under 100 nM in assay [2], under 1000 nM in assay [3] and under 100 nM in assay [4].
For `CC(C)(O)c1cc2nc(-c3cccc4[nH]ncc34)nc(N3CCOCC3)c2s1`, the IC50 in assay [1] is over 100 nM; in assay [2], under 100 nM; in assay [3], under 1000 nM; in assay [4], under 100 nM.
As to `CS(=O)(=O)c1cccc(-c2cc3nc(-c4cccc5[nH]ncc45)nc(N4CCOCC4)c3s2)c1`, the IC50 in assay [1] is over 100 nM; in assay [2], under 100 nM; in assay [3] it was under 1000 nM; in assay [4], under 100 nM.
Consider `COC/C=C/c1cc2nc(-c3cccc4[nH]ncc34)nc(N3CCOCC3)c2s1`, for which the IC50 in assay [1] is over 100 nM; in assay [2], under 100 nM; in assay [3] it was under 1000 nM; in assay [4] it was under 100 nM.
On to `Nc1nc(-c2cc3nc(-c4cnc5[nH]ccc5c4)nc(N4CCOCC4)c3s2)cs1`, for which the IC50 in assay [1] was under 100 nM; in assay [2], under 100 nM; in assay [3] it was under 1000 nM; in assay [4], under 100 nM.
As for `OC1(c2cc3nc(-c4cccc5[nH]ncc45)nc(N4CCOCC4)c3s2)CCC1`, the IC50 in assay [1] was over 100 nM; in assay [2] it was under 100 nM; in assay [3] it was under 1000 nM; in assay [4], over 100 nM.
On to `CN(C)Cc1cc2nc(-c3cccc4[nH]ncc34)nc(N3CCOCC3)c2s1`, for which the IC50 in assay [1] is over 100 nM; in assay [2] it was under 100 nM; in assay [3], under 1000 nM; in assay [4], under 100 nM.
For `CN(C)C(=O)c1cc2nc(-c3cccc4[nH]ncc34)nc(N3CCOCC3)c2s1`, the IC50 in assay [1] is over 100 nM; in assay [2], under 100 nM; in assay [3], under 1000 nM; in assay [4], over 100 nM.
As to `c1cc(-c2nc(N3CCOCC3)c3sc(-c4cn[nH]c4)cc3n2)c2cn[nH]c2c1`, the IC50 in assay [1] is over 100 nM; in assay [2] it was under 100 nM; in assay [3], under 1000 nM; in assay [4] it was over 100 nM.
Regarding `COc1ccc(NCc2cc3nc(-c4cccc5[nH]ncc45)nc(N4CCOCC4)c3s2)cn1`, the IC50 is over 100 nM in assay [1], under 100 nM in assay [2], under 1000 nM in assay [3] and over 100 nM in assay [4].
Take `CC(C)(O)c1cc2nc(-c3cccc4[nH]ccc34)nc(N3CCOCC3)c2s1`: the IC50 in assay [1] was over 100 nM; in assay [2], under 100 nM; in assay [3], under 1000 nM; in assay [4], under 100 nM.
For `NCC(=O)Nc1cccc(-c2cc3nc(-c4cccc5[nH]ncc45)nc(N4CCOCC4)c3s2)c1`, the IC50 in assay [1] is over 100 nM; in assay [2], over 100 nM; in assay [3], under 1000 nM; in assay [4] it was under 100 nM.
Take `Cc1c(-c2cccc(S(C)(=O)=O)c2)sc2c(N3CCOCC3)nc(-c3cnc4[nH]ccc4c3)nc12`: the IC50 is under 100 nM in assay [1], under 100 nM in assay [2], under 1000 nM in assay [3] and under 100 nM in assay [4].
Regarding `c1cc(-c2nc(N3CCOCC3)c3sc(Cn4ccnc4)cc3n2)c2cn[nH]c2c1`, the IC50 in assay [1] was over 100 nM; in assay [2], under 100 nM; in assay [3], under 1000 nM; in assay [4] it was over 100 nM.
`O=C(NCCN1CCCCC1)c1cc2nc(-c3cccc4[nH]ncc34)nc(N3CCOCC3)c2s1`: the IC50 in assay [1] was over 100 nM; in assay [2], under 100 nM; in assay [3], under 1000 nM; in assay [4], over 100 nM.
Turning to `c1cc2cc(-c3nc(N4CCOCC4)c4sc(-c5ccc(N6CCOCC6)nc5)cc4n3)cnc2[nH]1`, the IC50 in assay [1] is under 100 nM; in assay [2], under 100 nM; in assay [3], under 1000 nM; in assay [4], under 100 nM.
For `OCc1cccc(-c2cc3nc(-c4cccc5[nH]ncc45)nc(N4CCOCC4)c3s2)c1`, the IC50 in assay [1] was over 100 nM; in assay [2], under 100 nM; in assay [3], under 1000 nM; in assay [4] it was under 100 nM.
As to `C[C@H](O)CNCc1cc2nc(-c3cccc4[nH]ncc34)nc(N3CCOCC3)c2s1`, the IC50 was over 100 nM in assay [1], under 100 nM in assay [2], under 1000 nM in assay [3] and over 100 nM in assay [4].
As for `CS(=O)(=O)c1cccc(-c2cc3nc(-c4cnc5[nH]ccc5c4)nc(N4CCOCC4)c3s2)c1`, the IC50 in assay [1] is under 100 nM; in assay [2], under 100 nM; in assay [3], under 1000 nM; in assay [4], under 100 nM.
Regarding `CN(Cc1cc2nc(-c3cccc4[nH]ncc34)nc(N3CCOCC3)c2s1)C(=O)c1ccccc1`, the IC50 in assay [1] is over 100 nM; in assay [2] it was over 100 nM; in assay [3], under 1000 nM; in assay [4], over 100 nM.
For `O=S(=O)(Nc1cccc(O)c1)c1cc2nc(-c3cccc4[nH]ncc34)nc(N3CCOCC3)c2s1`, the IC50 is over 100 nM in assay [1], under 100 nM in assay [2], under 1000 nM in assay [3] and under 100 nM in assay [4].
On to `O=C(NCc1cc2nc(-c3cccc4[nH]ncc34)nc(N3CCOCC3)c2s1)N1CCOCC1`, for which the IC50 in assay [1] is over 100 nM; in assay [2] it was under 100 nM; in assay [3], under 1000 nM; in assay [4] it was over 100 nM.
Regarding `c1ccc(-c2cc3nc(-c4cccc5[nH]ncc45)nc(N4CCOCC4)c3o2)cc1`, the 50% inhibitory concentration (IC50) in assay [1] was over 100 nM; in assay [2], over 100 nM; in assay [3] it was under 1000 nM; in assay [4] it was under 100 nM.
As to `C[C@H](O)CNC(=O)c1cccc(-c2cc3nc(-c4cccc5[nH]ncc45)nc(N4CCOCC4)c3s2)c1`, the IC50 is over 100 nM in assay [1], under 100 nM in assay [2], under 1000 nM in assay [3] and under 100 nM in assay [4].

One may read the IC50 as the point on the concentration scale where inhibition reaches its midpoint. Higher therefore signals a need for much substance.
